Results reported in BigSolDB 2.1.

COc1cccc(C=O)c1O
solubility (mole fraction)
Conditions	273.15 K	278.15 K	283.15 K	288.15 K	293.15 K	298.15 K	303.15 K
in ethanol	0.0401	0.0526	0.0774	0.138	0.226	0.38	0.615
in n-propanol	0.0312	0.0388	0.0552	0.0807	0.134	0.299	0.554
in water	–	0.000268	0.000332	0.0004	0.000496	0.000578	0.000786
